In US11365203B2, “Fluorescent dye and preparation method and use thereof” (Fluorescence Diagnosis (shanghai) Biotech Company Ltd., priority 2016, dated 2022):

How the values were obtained:
Type in all cases: physicochemical
[1] = Fluorescence emission intensity in dichloromethane and methanol (polarity response); conditions: 1×10^−5 M; dichloromethane vs methanol; 25° C.
Method: Molecular Rotors 1, 2, 3, 22, 57, 63 were added to dichloromethane and methanol respectively to prepare a solution with a final concentration of 1×10^−5 M. Then, the solution was excited individually by excitation wavelengths of 480 nm, 480 nm and 500 nm at 25° C. to detect their fluorescence emission intensities in two different polar solvents.

[2] = Fluorescence emission spectra of molecular rotors in glycerin and methanol; conditions: for Maximum Emission Wavelength: 1×10^−5 M in glycerin and methanol, excited at maximum excitation wavelength of each dye; for Fluorescence Intensity Ratios in Glycerol/Methanol: 1×10^−5 M, glycerol vs methanol solution
Method: The fluorescent dyes (molecular rotors) prepared in Examples 1-68 were separately dissolved in dimethyl sulfoxide to prepare respectively a mother liquor having a concentration of 1×10^−2 M, and each of the mother liquors was added individually to glycerin and methanol, and mixed uniformly, thereby solutions of a final concentration of 1×10^−5 M were prepared individually. According to the different fluorescent dyes, the fluorescence emission spectra of the fluorescent dyes were detected with the maximum excitation wavelengths of respective fluorescent dyes successively under the same conditions.

[3] = Fluorescence emission in ethylene glycol-glycerol mixed solutions of different viscosities; conditions: 1×10^−5 M, 16.4-946.0 cp; for Emission wavelength: excited at 480 nm; for Viscosity response of fluorescence intensity: log intensity vs log viscosity linear
Method: Molecular Rotors 1, 2, 3, 22, 57, and 63 were added to ethylene glycol-glycerol mixed solutions having viscosities of 16.4 cp, 29.8 cp, 64.5 cp, 143.5 cp, 377.0 cp, and 946.0 cp to prepare a solution with a final concentration of 1×10^−5 M. The solution was excited at 480 nm. The fluorescence emission spectra at different viscosities were shown in FIGS. 1, 4, 7, 10, 13, and 16. Emission wavelengths of the molecular rotors were 555 nm, 590 nm, 610 nm, 570 nm, 559 nm, and 675 nm, respectively.

Compound	Polarity response of fluorescence intensity [1]	Maximum Emission Wavelength [2] [nm]	Fluorescence Intensity Ratios in Glycerol/Methanol [2]	Emission wavelength [3] [nm]	Viscosity response of fluorescence intensity [3]
2-[2-cyano-2-(2-benzoxazole)-vinyl]-5-didecylamino-thieno[3,2,b]thiophene [Molecular Rotor 2]	insensitive to the polarity change	590	1183	590	sensitive to viscosity
CN(C)c1cc2sc(/C=C(\C#N)C(=O)OC(C)(C)C)cc2s1 [Molecular Rotor 1, 2-(2-cyano-2-tert-butyl formatevinyl)-5-dimethylamino-thieno[3,2,b]thiophene]	insensitive to the polarity change	555	790	555	sensitive to viscosity
CN(CCO)c1cc2sc(/C=C(\C#N)c3nc4ccccc4s3)cc2s1 [Molecular Rotor 3, 2-[2-cyano-2-(1,3-benzothiazol-2-yl)-vinyl]-5-(N-methyl-N-hydroxyethyl)-thieno[3,2,b]thiophene]	insensitive to the polarity change	610	1455	610	sensitive to viscosity
CN(C)c1ccc2cc(/C=C(\C#N)C(=O)OC(C)(C)C)sc2c1 [Molecular Rotor 22]	insensitive to the polarity change	570	989	570	sensitive to viscosity
COCCNC(=O)/C(C#N)=C/c1cc2cc3cc(N4CCOCC4)sc3cc2s1 [Molecular Rotor 55]		562	466		
CN(C)c1cc2c(s1)-c1sc(C=C(C#N)C#N)cc1[Si]2(C)C [Molecular Rotor 56]		655	591		
CN(CCO)c1cc2c(s1)-c1sc(/C=C(\C#N)C(=O)OC(C)(C)C)cc1[Si]2(C)C [Molecular Rotor 57]	insensitive to the polarity change	659	884	559	sensitive to viscosity
C[Si]1(C)c2cc(/C=C(\C#N)C(=O)O)sc2-c2sc(N(CCO)CCO)cc21 [Molecular Rotor 58]		656	683		
CNc1cc2c(s1)-c1sc(/C=C(\C#N)C(=O)OC(C)(C)C)cc1[Si]21CCC1 [Molecular Rotor 60]		637	812		
CN(CCC#N)c1cc2c(s1)-c1sc(/C=C(\C#N)c3nc4ccccc4o3)cc1[Si]21CCC1 [Molecular Rotor 61]		691	816		
CN(CCO)c1cc2c(s1)-c1sc(/C=C(\C#N)c3nc4ccccc4s3)cc1[Si]21CCC1 [Molecular Rotor 62]		715	759		
CN(C)c1cc2c(s1)c1sc(/C=C(\C#N)C(=O)OC(C)(C)C)cc1n2C [Molecular Rotor 63]	insensitive to the polarity change	675	516	675	sensitive to viscosity
CN(C)c1cc2c(s1)-c1sc(/C=C(\C#N)C(=O)OC(C)(C)C)cc1C2(C)C [Molecular Rotor 65]		645	591		
CN(C)c1cc2c(s1)-c1sc(/C=C(\C#N)c3nc4ccccc4o3)cc1C2(C)C [Molecular Rotor 66]		670	623		
CN(CCO)c1cc2c(s1)-c1sc(/C=C(\C#N)c3nc4ccccc4s3)cc1C2(C)C [Molecular Rotor 67]		690	789		
CN(CCO)c1cc2c(s1)-c1sc(/C=C(\C#N)C(=O)O)cc1C2(C)C [Molecular Rotor 68]		648	953		
